Results: patent publication US20210196817A1, “Compositions and Methods for Selectively Modulating Tregs” (Augusta University Research Institute, Inc., priority 2014, published 2021)

Columns and labels:
Tregs (CD4+Foxp3+) [1] = test: pAkt (S473) phosphorylation by flow cytometry in activated Tregs; format: cell-based, mouse; conditions: 10 nM, 100 nM and 1 μM, 72 hrs, anti-CD3/anti-CD28/IL-2 activated
Method: (§1) Negative selection of CD4 T-cells from splenocytes was performed using magnetic bead separation technique according to the manufacturer's recommendations R&D Systems (Minneapolis, Minn.). Tregs (CD4+Foxp3+) and Tconvs (CD4+Foxp3-) were sorted from enriched CD4 cells using FACS ARIA II cell sorter (BD Biosciences).
(§2) Sorted Tregs and Tconvs were labeled with VCT according to the manufacturer's protocol (Life Technologies, NY). Cells stimulated with and without inhibitors in the presence of 10 μg/mL plate-bound anti-CD3, 2.5 μg/mL soluble anti-CD28, and 100 IU/mL IL-2. After 3 days, cells were stained with live/dead cell stain (Life Technologies, NY), fixed, permeabelized and stained with anti-CD4-FITC and anti-Foxp3-AlexaFluor 647. For pAkt (S473) and pS6 analysis, the signal was amplified by using a biotin-conjugated donkey anti-rabbit antibody (BD Biosciences) and Streptavidin-PE. After staining, cells were acquired on LSRII SORP flow cytometer and analyzed using FlowJo software (Tree Star).
(§3) The phosphorylation status of Akt (S473) in activated Tregs and Tconvs was measured by flow cytometry after treatment with titrated concentrations of the individual inhibitors. The concentrations choice was based on previously published IC50 of the inhibitors (Table 1) and the in-vitro viability of T-cells. Concentrations that maintain more than 70% viability of the T-cells were used.

Tconvs (CD4+Foxp3-) [2] = test: pAkt (S473) phosphorylation by flow cytometry in activated Tconvs; format: cell-based, mouse; conditions: 10 nM, 100 nM and 1 μM, 72 hrs, anti-CD3/anti-CD28/IL-2 activated
Method: as §1, §2, §3

Tregs (CD4+Foxp3+) [3] = test: Violet Cell Trace proliferation assay, Tregs; format: cell-based, mouse; conditions: all tested concentrations, 3 days, anti-CD3/anti-CD28/IL-2
Method: (§4) Sorted Tregs and Tconvs were labeled with VCT according to the manufacturer's protocol (Life Technologies, NY). Cells stimulated with and without inhibitors in the presence of 10 μg/mL plate-bound anti-CD3, 2.5 μg/mL soluble anti-CD28, and 100 IU/mL IL-2. After 3 days, cells were stained with live/dead cell stain (Life Technologies, NY), fixed, permeabelized and stained with anti-CD4-FITC and anti-Foxp3-AlexaFluor 647. […] After staining, cells were acquired on LSRII SORP flow cytometer and analyzed using FlowJo software (Tree Star).

Tconvs (CD4+Foxp3-) [4] = test: Violet Cell Trace proliferation assay, Tconvs; format: cell-based, mouse; conditions: all tested concentrations, 3 days, anti-CD3/anti-CD28/IL-2
Method: as §4

PI3Kα = PI3Kα (Homo sapiens, UniProt P42336); conditions: previously published IC50; cited from earlier work
PI3Kδ = PI3Kδ (Homo sapiens, UniProt O00329); conditions: previously published IC50; cited from earlier work
PI3Kγ = PI3Kγ (Homo sapiens, UniProt P48736); conditions: previously published IC50; cited from earlier work
Tregs (CD4+Foxp3+) [5] = test: Continuous inhibition of PI3Kδ in vivo: Tregs, CD4 and CD8 cells, incl. tumor infiltration

Sequence of PI3Kγ (P48736 whole entry, species assumed): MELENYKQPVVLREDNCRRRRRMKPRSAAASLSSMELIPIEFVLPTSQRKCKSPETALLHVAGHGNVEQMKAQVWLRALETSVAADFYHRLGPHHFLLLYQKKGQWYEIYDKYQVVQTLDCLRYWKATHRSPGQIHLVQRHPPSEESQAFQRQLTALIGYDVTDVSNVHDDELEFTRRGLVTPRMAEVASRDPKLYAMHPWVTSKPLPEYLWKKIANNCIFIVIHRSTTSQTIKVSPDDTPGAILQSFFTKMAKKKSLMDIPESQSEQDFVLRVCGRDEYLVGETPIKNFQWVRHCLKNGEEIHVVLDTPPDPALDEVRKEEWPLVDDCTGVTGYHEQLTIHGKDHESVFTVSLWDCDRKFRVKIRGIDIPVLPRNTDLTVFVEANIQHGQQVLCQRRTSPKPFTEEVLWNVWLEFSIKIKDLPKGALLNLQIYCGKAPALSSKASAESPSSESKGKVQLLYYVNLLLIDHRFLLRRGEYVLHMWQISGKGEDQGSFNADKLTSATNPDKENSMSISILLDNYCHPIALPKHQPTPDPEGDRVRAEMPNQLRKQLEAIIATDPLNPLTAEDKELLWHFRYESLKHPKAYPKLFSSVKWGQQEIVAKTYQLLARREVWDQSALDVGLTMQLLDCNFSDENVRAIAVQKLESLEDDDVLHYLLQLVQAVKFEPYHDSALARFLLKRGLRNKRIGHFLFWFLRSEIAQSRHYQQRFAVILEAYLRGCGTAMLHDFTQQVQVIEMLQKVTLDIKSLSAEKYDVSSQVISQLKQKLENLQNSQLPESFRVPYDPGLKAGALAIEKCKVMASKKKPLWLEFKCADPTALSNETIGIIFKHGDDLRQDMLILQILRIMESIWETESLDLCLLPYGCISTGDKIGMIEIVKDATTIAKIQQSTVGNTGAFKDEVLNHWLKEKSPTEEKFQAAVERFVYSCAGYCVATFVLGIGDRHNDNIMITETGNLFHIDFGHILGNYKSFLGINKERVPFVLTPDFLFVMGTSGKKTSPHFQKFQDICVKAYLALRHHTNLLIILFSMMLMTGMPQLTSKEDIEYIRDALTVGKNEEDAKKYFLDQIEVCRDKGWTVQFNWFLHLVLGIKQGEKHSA
Sequence of PI3Kδ (O00329 whole entry): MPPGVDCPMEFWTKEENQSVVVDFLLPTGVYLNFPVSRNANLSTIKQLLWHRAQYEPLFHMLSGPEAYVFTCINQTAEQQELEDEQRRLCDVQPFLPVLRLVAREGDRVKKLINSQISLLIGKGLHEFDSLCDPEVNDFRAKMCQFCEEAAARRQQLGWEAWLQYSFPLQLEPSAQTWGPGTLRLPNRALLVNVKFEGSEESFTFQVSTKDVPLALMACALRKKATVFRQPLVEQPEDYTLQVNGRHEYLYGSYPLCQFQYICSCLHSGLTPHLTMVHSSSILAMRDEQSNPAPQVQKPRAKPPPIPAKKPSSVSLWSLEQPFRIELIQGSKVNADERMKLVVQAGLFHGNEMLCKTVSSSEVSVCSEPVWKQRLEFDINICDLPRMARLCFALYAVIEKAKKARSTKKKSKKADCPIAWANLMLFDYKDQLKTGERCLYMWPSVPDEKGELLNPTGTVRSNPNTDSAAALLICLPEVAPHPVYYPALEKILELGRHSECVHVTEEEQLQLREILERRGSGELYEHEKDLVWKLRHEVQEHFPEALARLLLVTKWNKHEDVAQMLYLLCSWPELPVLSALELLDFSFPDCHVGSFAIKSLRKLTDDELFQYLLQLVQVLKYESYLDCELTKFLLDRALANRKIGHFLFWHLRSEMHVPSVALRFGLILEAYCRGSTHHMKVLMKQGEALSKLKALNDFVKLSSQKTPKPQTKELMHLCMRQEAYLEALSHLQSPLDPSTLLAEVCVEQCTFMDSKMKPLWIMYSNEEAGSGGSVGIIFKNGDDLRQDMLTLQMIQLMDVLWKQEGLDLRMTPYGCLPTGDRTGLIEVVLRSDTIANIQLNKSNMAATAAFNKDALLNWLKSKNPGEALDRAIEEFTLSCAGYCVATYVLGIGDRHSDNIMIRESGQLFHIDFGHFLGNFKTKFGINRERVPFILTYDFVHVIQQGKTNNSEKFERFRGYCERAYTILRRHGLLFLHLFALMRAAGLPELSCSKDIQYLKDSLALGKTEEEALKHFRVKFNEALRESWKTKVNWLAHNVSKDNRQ
Sequence of PI3Kδ (P27986 whole entry partner): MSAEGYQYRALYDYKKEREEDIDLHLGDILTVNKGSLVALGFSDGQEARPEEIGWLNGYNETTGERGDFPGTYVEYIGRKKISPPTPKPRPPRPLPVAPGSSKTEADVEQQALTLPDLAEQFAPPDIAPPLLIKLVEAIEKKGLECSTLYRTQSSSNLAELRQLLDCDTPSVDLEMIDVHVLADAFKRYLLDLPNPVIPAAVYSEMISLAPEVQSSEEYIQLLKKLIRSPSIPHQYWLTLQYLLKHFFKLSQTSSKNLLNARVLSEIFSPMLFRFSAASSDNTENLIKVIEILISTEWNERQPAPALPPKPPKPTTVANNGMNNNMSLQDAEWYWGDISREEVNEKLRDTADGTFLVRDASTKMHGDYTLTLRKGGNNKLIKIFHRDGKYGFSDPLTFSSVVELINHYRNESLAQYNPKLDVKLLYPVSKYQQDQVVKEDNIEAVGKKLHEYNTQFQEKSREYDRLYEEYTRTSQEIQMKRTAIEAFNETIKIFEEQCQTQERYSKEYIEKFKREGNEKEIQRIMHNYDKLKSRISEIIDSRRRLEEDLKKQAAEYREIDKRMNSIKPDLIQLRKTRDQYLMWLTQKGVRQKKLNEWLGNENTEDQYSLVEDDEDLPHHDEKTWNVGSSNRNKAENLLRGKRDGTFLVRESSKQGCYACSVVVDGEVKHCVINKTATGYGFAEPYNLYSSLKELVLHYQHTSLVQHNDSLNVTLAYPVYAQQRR
Sequence of PI3Kα (P42336 whole entry, species assumed): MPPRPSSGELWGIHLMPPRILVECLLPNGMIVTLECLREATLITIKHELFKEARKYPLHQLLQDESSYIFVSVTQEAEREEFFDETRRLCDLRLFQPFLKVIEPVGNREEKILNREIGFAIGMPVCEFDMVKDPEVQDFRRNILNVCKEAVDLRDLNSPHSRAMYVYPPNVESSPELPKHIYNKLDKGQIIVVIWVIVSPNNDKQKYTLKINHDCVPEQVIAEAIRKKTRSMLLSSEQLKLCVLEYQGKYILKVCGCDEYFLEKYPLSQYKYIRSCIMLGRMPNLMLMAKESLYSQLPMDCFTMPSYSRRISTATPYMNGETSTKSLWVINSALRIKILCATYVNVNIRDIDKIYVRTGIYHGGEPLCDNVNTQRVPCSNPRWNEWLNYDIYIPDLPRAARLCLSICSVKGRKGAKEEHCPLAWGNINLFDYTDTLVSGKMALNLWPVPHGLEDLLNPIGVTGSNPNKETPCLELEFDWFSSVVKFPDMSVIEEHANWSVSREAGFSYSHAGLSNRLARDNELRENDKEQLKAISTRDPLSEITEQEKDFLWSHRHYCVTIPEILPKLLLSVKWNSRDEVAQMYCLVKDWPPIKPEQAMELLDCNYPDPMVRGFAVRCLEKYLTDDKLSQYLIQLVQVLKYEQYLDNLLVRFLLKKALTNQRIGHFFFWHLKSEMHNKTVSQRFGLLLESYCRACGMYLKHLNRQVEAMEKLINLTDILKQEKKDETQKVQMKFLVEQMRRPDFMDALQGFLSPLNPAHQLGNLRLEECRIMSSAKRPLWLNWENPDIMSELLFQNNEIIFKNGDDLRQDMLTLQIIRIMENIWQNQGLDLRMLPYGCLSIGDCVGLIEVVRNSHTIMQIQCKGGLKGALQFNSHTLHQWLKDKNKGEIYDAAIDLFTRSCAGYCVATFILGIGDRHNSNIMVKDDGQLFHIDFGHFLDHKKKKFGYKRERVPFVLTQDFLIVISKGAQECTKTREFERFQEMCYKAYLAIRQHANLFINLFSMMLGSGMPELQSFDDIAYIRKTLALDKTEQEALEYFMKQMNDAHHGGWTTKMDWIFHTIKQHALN

| Compound | inhibition of pAkt (S473) in Tregs (Tregs (CD4+Foxp3+) [1]) | inhibition of pAkt (S473) in Tconvs (Tconvs (CD4+Foxp3-) [2]) | inhibition of proliferation of Tregs (Tregs (CD4+Foxp3+) [3]) | inhibition of proliferation of Tconvs (Tconvs (CD4+Foxp3-) [4]) | IC50 (PI3Kα) | IC50 (PI3Kδ) | IC50 (PI3Kγ) | CD4 and CD8 cells in tumor (per 10^6 of CD45+CD3+) (Tregs (CD4+Foxp3+) [5]; 10 mg/kg, continuous treatment) | CD4 and CD8 cells under continuous treatment (Tregs (CD4+Foxp3+) [5]; day 26 vs day 12 baseline and vehicle) |
| --- | --- | --- | --- | --- | --- | --- | --- | --- | --- |
| Cc1cc(C(C)Nc2ccccc2)c2nc(N3CCOCC3)cc(=O)n2c1 (stereo not drawn) [TGX-221] | No remarkable inhibition | No remarkable inhibition | no inhibition | no inhibition | 5 µM | 0.1 µM | > 10 µM |  |  |
| Cc1nc(NC(=O)N2CCC[C@H]2C(N)=O)sc1-c1csc(C(C)(C)C)n1 [A66] | No remarkable inhibition | No remarkable inhibition |  |  |  |  |  |  |  |
| CC[C@H](Nc1ncnc2[nH]cnc12)c1nc2cccc(F)c2c(=O)n1-c1ccccc1 [CAL-101] |  | no effect |  |  |  |  |  | no effect | no effect |
